One experiment addresses T1, human orexin 1 receptor (Homo sapiens, UniProt O43613).
T1 construct: expressed in transfected cells
T1 sequence (O43613 1-425): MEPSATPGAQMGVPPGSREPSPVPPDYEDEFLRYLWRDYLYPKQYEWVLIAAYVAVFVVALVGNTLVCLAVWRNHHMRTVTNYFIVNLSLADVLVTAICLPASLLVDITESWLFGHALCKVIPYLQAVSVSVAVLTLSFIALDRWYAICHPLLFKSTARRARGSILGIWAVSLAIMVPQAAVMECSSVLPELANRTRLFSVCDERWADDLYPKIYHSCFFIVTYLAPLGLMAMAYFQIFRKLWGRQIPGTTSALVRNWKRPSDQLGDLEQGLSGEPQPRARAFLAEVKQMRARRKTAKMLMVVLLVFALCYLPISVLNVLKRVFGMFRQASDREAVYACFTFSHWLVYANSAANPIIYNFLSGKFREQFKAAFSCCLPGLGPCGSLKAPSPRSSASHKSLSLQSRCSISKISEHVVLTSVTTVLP
The experiment in a line: Calcium accumulation in cells (FLIPR), antagonism of orexin A, human orexin 1 receptor. It counts as cell-based. Particulars: for pKi: calcium accumulation, antagonism of orexin A, Cheng-Prusoff corrected, read-out: FLIPR hOx1R Ki; for inhibition at 10 µM: measured at a concentration of 10 μM of compound, read-out: FLIPR hOx1R % inhibition.

For another experiment, the target named is T2, human orexin 2 receptor (Homo sapiens, UniProt O43614).
T2 construct: expressed in transfected cells
T2 sequence (O43614 1-444): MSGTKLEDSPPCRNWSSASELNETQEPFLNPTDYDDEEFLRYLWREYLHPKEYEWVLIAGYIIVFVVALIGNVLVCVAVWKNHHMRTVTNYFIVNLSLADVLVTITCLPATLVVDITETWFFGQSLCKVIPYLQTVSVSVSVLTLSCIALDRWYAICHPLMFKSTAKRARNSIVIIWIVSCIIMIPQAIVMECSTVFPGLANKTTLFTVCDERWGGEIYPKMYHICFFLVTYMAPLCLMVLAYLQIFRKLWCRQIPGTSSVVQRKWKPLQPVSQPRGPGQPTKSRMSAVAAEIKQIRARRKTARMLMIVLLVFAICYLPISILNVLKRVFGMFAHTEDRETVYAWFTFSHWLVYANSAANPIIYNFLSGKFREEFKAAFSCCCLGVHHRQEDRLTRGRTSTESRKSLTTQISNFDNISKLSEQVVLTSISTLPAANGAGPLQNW
The experiment in a line: Calcium accumulation in cells (FLIPR), antagonism of orexin A, human orexin 2 receptor. It counts as cell-based. The following applies: for pKi: calcium accumulation, antagonism of orexin A, Cheng-Prusoff corrected, read-out: FLIPR hOx2R Ki; for inhibition at 10 µM: measured at a concentration of 10 μM of compound, read-out: FLIPR hOx2R % inhibition.

pKi: −log10 of the molar value. Where only a bound is given, the exact number is not on record here.

The pKi is the Ki on a negative log10 scale, so that one unit is a factor of ten. As usually defined, the inhibition is the percentage by which the read-out fell short of the control.

Take `Cn1ccnc1-c1ccnc(N2CCC3(CCN(Cc4c[nH]c5ccccc45)C3=O)C2)n1` (stereo not drawn) [Example 5.22, 2-((1H-indol-3-yl)methyl)-7-(4-(1-methyl-1H-imidazol-2-yl)pyrimidin-2-yl)-2,7-diazaspiro[4.4]nonan-1-one]: the pKi was 6.03 on human orexin 1 receptor and 6.31 at human orexin 2 receptor.
Take `Cc1cnc(N2CCC3(CCN(Cc4c[nH]c5ccccc45)C3=O)C2)s1` (stereo not drawn) [Example 5.23, 2-((1H-indol-3-yl)methyl)-7-(5-methylthiazol-2-yl)-2,7-diazaspiro[4.4]nonan-1-one]: on human orexin 1 receptor, the inhibition at 10 µM is 67%. At human orexin 2 receptor, the pKi is 6.19.
For `O=C1N(Cc2c[nH]c3ccccc23)CCC12CCN(c1cc3c(nn1)CCOC3)C2` (stereo not drawn) [Example 5.24, 2-((1H-indol-3-yl)methyl)-7-(7,8-dihydro-5H-pyrano[4,3-c]pyridazin-3-yl)-2,7-diazaspiro[4.4]nonan-1-one], the inhibition at 10 µM at human orexin 1 receptor turned out to be 25%; on human orexin 2 receptor, 54%.
As for `Cc1cc(N2CCOCC2)nc(N2CCC3(CCN(Cc4c[nH]c5ccccc45)C3=O)C2)n1` (stereo not drawn) [Example 5.25, 2-((1H-indol-3-yl)methyl)-7-(4-methyl-6-morpholinopyrimidin-2-yl)-2,7-diazaspiro[4.4]nonan-1-one], the figures for the inhibition at 10 µM on human orexin 1 receptor and on human orexin 2 receptor were 71% and 66%, respectively.
On to `Cc1nc(N2CCOCC2)cc(N2CCC3(CCN(Cc4c[nH]c5ccccc45)C3=O)C2)n1` (stereo not drawn) [Example 5.26, 2-((1H-indol-3-yl)methyl)-7-(2-methyl-6-morpholinopyrimidin-4-yl)-2,7-diazaspiro[4.4]nonan-1-one], for which the inhibition at 10 µM at human orexin 1 receptor turned out to be 37%; on human orexin 2 receptor it was 47%.
Turning to `Cc1cccc(N2CCC3(CCN(Cc4c[nH]c5ccccc45)C3=O)C2)n1` (stereo not drawn) [Example 5.27, 2-((1H-indol-3-yl)methyl)-7-(6-methylpyridin-2-yl)-2,7-diazaspiro[4.4]nonan-1-one], the pKi was 5.62 on human orexin 1 receptor and 6.53 on human orexin 2 receptor.
Regarding `Cc1ccnc(N2CCC3(CCN(Cc4c[nH]c5ccccc45)C3=O)C2)c1` (stereo not drawn) [Example 5.28, 2-((1H-indol-3-yl)methyl)-7-(4-methylpyridin-2-yl)-2,7-diazaspiro[4.4]nonan-1-one], the inhibition at 10 µM at human orexin 1 receptor worked out at 34%. Further, the pKi at human orexin 2 receptor was 6.74.
In the case of `Cc1cc(C)nc(N2CCC3(CCN(Cc4c[nH]c5ccccc45)C3=O)C2)c1` (stereo not drawn) [Example 5.29, 2-((1H-indol-3-yl)methyl)-7-(4,6-dimethylpyridin-2-yl)-2,7-diazaspiro[4.4]nonan-1-one], the pKi on human orexin 1 receptor is 5.83; at human orexin 2 receptor, 6.94.
Take `COc1ccnc(N2CCC3(CCN(Cc4c[nH]c5ccccc45)C3=O)C2)c1` (stereo not drawn) [Example 5.30, 2-((1H-indol-3-yl)methyl)-7-(4-methoxypyridin-2-yl)-2,7-diazaspiro[4.4]nonan-1-one]: the figures for the pKi on human orexin 1 receptor and at human orexin 2 receptor were 5.36 and 6.71, respectively.
On to `Cc1cc(N2CCC3(CCN(Cc4c[nH]c5ccccc45)C3=O)C2)nc(C)n1` (stereo not drawn) [Example 5.31, 2-((1H-indol-3-yl)methyl)-7-(2,6-dimethylpyrimidin-4-yl)-2,7-diazaspiro[4.4]nonan-1-one], for which the results for the inhibition at 10 µM at human orexin 1 receptor and on human orexin 2 receptor were < 10% and 24%, respectively.
Take `Cn1ccc2ccnc(N3CCC4(CCN(Cc5c[nH]c6ccccc56)C4=O)C3)c21` (stereo not drawn) [Example 5.32, 2-((1H-indol-3-yl)methyl)-7-(1-methyl-1H-pyrrolo[2,3-c]pyridin-7-yl)-2,7-diazaspiro[4.4]nonan-1-one]: the pKi on human orexin 1 receptor is 5.35; on human orexin 2 receptor it was 5.64.
Consider `COc1cc(N2CCC3(CCN(Cc4c[nH]c5ccccc45)C3=O)C2)nc2ccnn12` (stereo not drawn) [Example 5.33, 2-((1H-indol-3-yl)methyl)-7-(7-methoxypyrazolo[1,5-a]pyrimidin-5-yl)-2,7-diazaspiro[4.4]nonan-1-one], for which the inhibition at 10 µM at human orexin 1 receptor and on human orexin 2 receptor was < 10% throughout.
